Like-named read-outs stand apart in the source and are kept apart here.
Experiments:
Assay type in all cases: biochemical
[1] = target: T1, Human recombinant PDE10A (hPDE10A) (Homo sapiens, UniProt Q9Y233); assay: In vitro assay PDE10A, human clone (SPA, 3H-cAMP hydrolysis); conditions: for Emax: read-out: hPDE10A2 or rPDE10A2 Emax
T1 construct: His tag (inferred from metal chelate purification); made in house; host or cells: Sf9 insect cells (baculovirus)
Method in brief: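 Hydrolysis of 3H-cAMP (60 nM cAMP, 0.008 μCi tracer) proceeded for 60 min at room temperature, with the product detected by SPA bead scintillation counting. The enzyme was hPDE10A from baculovirus-infected Sf9 cells in Tris pH 7.8 buffer with MgCl2 and EGTA, and compounds were at 1% DMSO final. Blanks lacked enzyme.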

[2] = target: T2, Human recombinant PDE3A (hPDE3A) (Homo sapiens, UniProt Q14432); assay: In vitro assay PDE3A (SPA, 3H-cAMP hydrolysis); conditions: for IC50: hPDE3B pIC50; for Emax: read-out: hPDE3B Emax, read-out: Emax;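 for Emax: the method names PDE3A and the table heading PDE3B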
T2 construct: purchased Scottish Biomedical; host or cells: Sf9 insect cells
Method in brief: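 Radiometric SPA measuring [3H]-cAMP hydrolysis (0.4 μM cAMP, 2.4 μCi/ml) over 60 min at room temperature, in Tris pH 7.8 buffer with MgCl2 and EGTA, 1% DMSO. Enzyme: recombinant human brain PDE3A expressed in Sf9 cells, used as partially purified lysate. Counts compared with enzyme-free blanks and vehicle controls.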

[3] = target: T3, Human recombinant PDE2A (hPDE2A) (Homo sapiens, UniProt O00408); assay: In vitro assay PDE2A (SPA, 3H-cGMP hydrolysis); conditions: for Emax: read-out: hPDE2A Emax
T3 construct: His tag (inferred from metal chelate purification); made in house; host or cells: Sf9 insect cells (baculovirus)

[4] = human clone by default (no (r) mark)
[5] = human clone by default (no (r) mark), read-out: hPDE10A2 or rPDE10A2 pIC50 (converted)
[6] = read-out: hPDE2A pIC50 (converted)

T3 sequence (O00408 whole entry): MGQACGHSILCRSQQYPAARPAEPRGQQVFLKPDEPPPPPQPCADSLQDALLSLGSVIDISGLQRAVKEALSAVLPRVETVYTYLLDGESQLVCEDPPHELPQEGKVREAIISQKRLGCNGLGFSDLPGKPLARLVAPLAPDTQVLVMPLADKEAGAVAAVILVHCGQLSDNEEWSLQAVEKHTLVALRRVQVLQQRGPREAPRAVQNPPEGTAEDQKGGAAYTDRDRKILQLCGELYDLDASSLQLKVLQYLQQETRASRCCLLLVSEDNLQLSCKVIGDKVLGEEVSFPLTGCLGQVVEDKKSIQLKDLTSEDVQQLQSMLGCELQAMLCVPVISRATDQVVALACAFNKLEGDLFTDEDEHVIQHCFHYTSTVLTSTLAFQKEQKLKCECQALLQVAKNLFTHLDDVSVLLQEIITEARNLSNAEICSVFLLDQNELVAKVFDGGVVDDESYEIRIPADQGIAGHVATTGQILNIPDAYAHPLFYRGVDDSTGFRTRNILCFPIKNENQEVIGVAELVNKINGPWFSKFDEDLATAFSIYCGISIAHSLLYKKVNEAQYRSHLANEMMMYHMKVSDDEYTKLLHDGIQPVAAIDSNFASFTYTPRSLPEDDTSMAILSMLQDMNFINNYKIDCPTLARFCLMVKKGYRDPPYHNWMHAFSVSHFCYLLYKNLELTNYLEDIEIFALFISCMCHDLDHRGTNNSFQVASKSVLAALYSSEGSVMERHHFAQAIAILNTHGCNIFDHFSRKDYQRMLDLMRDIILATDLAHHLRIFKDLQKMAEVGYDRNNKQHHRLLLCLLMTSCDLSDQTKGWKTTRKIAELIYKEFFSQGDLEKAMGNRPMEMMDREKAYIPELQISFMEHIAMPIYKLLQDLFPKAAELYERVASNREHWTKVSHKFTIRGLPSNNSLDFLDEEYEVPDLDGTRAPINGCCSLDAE
T1 sequence (Q9Y233 267-1055): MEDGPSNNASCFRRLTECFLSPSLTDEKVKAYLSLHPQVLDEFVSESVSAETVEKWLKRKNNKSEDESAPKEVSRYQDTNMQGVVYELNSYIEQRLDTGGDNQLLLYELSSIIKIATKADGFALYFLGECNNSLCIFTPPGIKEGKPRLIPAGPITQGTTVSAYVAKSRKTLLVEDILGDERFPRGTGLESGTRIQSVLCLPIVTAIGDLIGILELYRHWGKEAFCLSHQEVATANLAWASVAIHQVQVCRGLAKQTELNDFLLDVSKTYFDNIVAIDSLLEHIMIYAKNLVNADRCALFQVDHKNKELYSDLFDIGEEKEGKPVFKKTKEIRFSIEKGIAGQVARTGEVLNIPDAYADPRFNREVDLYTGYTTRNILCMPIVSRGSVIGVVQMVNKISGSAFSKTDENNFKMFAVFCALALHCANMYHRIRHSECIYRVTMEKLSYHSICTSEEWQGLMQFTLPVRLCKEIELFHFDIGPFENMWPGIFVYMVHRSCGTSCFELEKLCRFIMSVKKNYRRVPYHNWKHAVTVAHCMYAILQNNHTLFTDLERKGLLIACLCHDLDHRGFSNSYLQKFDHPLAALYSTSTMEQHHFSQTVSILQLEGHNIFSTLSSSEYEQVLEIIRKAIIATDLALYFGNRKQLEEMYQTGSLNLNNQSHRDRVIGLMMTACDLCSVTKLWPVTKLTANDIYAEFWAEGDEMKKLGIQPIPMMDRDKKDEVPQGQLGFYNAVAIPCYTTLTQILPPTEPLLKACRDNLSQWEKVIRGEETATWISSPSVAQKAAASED
T2 sequence (Q14432 whole entry): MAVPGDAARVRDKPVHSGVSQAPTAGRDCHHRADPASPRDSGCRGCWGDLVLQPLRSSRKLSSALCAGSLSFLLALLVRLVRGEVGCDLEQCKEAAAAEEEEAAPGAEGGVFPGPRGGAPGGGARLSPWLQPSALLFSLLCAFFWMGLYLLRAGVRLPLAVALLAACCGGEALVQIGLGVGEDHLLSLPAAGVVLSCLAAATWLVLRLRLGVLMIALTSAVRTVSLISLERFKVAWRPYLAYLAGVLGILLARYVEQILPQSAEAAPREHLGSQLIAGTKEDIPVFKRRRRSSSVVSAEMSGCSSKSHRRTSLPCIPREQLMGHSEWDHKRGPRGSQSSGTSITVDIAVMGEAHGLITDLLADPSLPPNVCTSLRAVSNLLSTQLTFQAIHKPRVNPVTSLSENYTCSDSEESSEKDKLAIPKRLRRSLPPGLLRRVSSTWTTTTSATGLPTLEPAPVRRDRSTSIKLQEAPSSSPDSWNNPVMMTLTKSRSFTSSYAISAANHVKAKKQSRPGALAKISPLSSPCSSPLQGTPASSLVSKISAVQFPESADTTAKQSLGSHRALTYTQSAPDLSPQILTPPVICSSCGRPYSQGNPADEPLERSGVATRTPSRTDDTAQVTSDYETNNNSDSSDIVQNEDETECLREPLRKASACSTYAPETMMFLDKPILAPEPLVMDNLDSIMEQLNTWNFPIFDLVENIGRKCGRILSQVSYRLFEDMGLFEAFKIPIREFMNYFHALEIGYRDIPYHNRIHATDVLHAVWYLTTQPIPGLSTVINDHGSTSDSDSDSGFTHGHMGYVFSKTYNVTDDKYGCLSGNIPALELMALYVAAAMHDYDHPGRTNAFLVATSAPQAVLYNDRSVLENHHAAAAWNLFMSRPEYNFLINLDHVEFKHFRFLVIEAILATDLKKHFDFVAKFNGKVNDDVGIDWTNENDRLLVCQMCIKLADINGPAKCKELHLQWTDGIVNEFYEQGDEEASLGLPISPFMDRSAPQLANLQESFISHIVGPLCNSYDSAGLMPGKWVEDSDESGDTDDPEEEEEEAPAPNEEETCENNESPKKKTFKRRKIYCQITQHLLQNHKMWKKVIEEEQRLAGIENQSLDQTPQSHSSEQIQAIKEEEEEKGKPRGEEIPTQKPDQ

Cc1cc2ccc(C(=O)N3CC[C@@H](C)[C@H](c4cc(C(F)F)nc5ncnn45)C3)cn2c1 [Compound 289]
Emax [1, 4]: 99% | IC50 [1, 5]: 0.0631 µM | IC50 ([2]; read-out: pIC50 (converted)): 0.178 µM | Emax [2]: 98% | Emax [3]: 100% | IC50 [3, 6]: 0.0024 µM

Cc1ccc2cc(C(=O)N3[C@H]4CC[C@H](c5cc(C(F)F)nc6ncnn56)[C@@H]3CC4)c(C)nc2c1 [Compound 298]
Emax [1, 4]: 47% | IC50 [1, 5]: > 10 µM | IC50 ([2]; read-out: pIC50 (converted)): > 10 µM | Emax [2]: 25% | Emax [3]: 99% | IC50 [3, 6]: 0.0186 µM

O=C(c1nc2ccccc2o1)N1[C@H]2CC[C@H](c3cc(C(F)F)nc4ncnn34)[C@@H]1CC2 [Compound 304]
Emax [1, 4]: 45% | IC50 [1, 5]: > 10 µM | IC50 ([2]; read-out: pIC50 (converted)): 9.12 µM | Emax [2]: 48% | Emax [3]: 100% | IC50 [3, 6]: 0.0398 µM

Cc1nc2cccc(C(=O)N3[C@H]4CC[C@H](c5cc(C(F)F)nc6ncnn56)[C@@H]3CC4)c2o1 [Compound 305]
Emax [1, 4]: 57% | IC50 [1, 5]: 7.08 µM | IC50 ([2]; read-out: pIC50 (converted)): > 10 µM | Emax [2]: 7% | Emax [3]: 100% | IC50 [3, 6]: 0.0871 µM

Cc1nc2cc(C(=O)N3[C@H]4CC[C@H](c5cc(C(F)F)nc6ncnn56)[C@@H]3CC4)ccc2o1 [Compound 306]
IC50 ([1]; hPDE10A2 or rPDE10A2 pIC50, human clone by default (no (r) mark)): 3.63 µM | Emax [1, 4]: 74% | IC50 [2]: 4.47 µM | Emax [2]: 71% | IC50 ([3]; hPDE2A pIC50): 0.0447 µM | Emax [3]: 100%

O=C(c1cccc2ncccc12)N1[C@H]2CC[C@H](c3cc(C(F)F)nc4ncnn34)[C@@H]1CC2 [Compound 315]
Emax [1, 4]: 47% | IC50 [1, 5]: 9.77 µM | IC50 ([2]; read-out: pIC50 (converted)): > 10 µM | Emax [2]: 20% | Emax [3]: 98% | IC50 [3, 6]: 0.112 µM

O=C(c1cccc2cccnc12)N1[C@H]2CC[C@H](c3cc(C(F)F)nc4ncnn34)[C@@H]1CC2 [Compound 316]
Emax [1, 4]: 14% | IC50 [1, 5]: > 10 µM | IC50 ([2]; read-out: pIC50 (converted)): > 10 µM | Emax [2]: 5% | Emax [3]: 94% | IC50 [3, 6]: 0.257 µM

O=C(c1ccnc2ccccc12)N1[C@H]2CC[C@H](c3cc(C(F)F)nc4ncnn34)[C@@H]1CC2 [Compound 317]
hPDE10A2 or rPDE10A2 Emax [1, 4]: 34 | IC50 [1, 5]: > 10 µM | IC50 ([2]; read-out: pIC50 (converted)): > 10 µM | Emax [2]: 15% | Emax [3]: 99%

O=C(c1ccnc2ccccc12)N1[C@H]2CC[C@H](c3cc(C(F)F)nc4ncnn34)[C@@H]1CC2 [Compound 318]
hPDE10A2 or rPDE10A2 Emax [1, 4]: 13 | hPDE10A2 or rPDE10A2 pIC50 [1, 4]: <5 | hPDE3B Emax [2]: 11 | hPDE2A Emax [3]: 89

O=C(c1cccc2ccccc12)N1[C@H]2CC[C@H](c3cc(C(F)F)nc4ncnn34)[C@@H]1CC2 [Compound 320]
Emax [1, 4]: 62% | IC50 [1, 5]: 7.08 µM | IC50 ([2]; read-out: pIC50 (converted)): > 10 µM | Emax [2]: 47% | Emax [3]: 100% | IC50 [3, 6]: 0.0537 µM

C[C@@H]1CCN(C(=O)c2ccc3ccccc3n2)C[C@H]1c1cc(C(F)F)nc2ncnn12 [Compound 323]
Emax [1, 4]: 97% | IC50 [1, 5]: 0.224 µM | IC50 ([2]; read-out: pIC50 (converted)): 0.724 µM | Emax [2]: 95% | Emax [3]: 100% | IC50 [3, 6]: 0.00389 µM

C[C@@H]1CCN(C(=O)c2ccc3cnccc3c2)C[C@H]1c1cc(C(F)F)nc2ncnn12 [Compound 326]
Emax [1, 4]: 99% | IC50 [1, 5]: 0.0603 µM | IC50 ([2]; read-out: pIC50 (converted)): 0.257 µM | Emax [2]: 97% | Emax [3]: 100% | IC50 [3, 6]: 0.00214 µM

COc1cc(C(=O)N2[C@H]3CC[C@H](c4cc(C(F)F)nc5ncnn45)[C@@H]2CC3)ccc1Cl [Compound 336]
Emax [1, 4]: 87% | IC50 [1, 5]: 1.91 µM | IC50 ([2]; read-out: pIC50 (converted)): 3.24 µM | Emax [2]: 78% | Emax [3]: 101% | IC50 [3, 6]: 0.0186 µM

O=C(c1ccc(F)c(F)c1)N1[C@H]2CC[C@H](c3cc(C(F)F)nc4ncnn34)[C@@H]1CC2 [Compound 337]
Emax [1, 4]: 71% | IC50 [1, 5]: 4.57 µM | IC50 ([2]; read-out: pIC50 (converted)): > 10 µM | Emax [2]: 43% | Emax [3]: 99% | IC50 [3, 6]: 0.166 µM

O=C(c1ccc(C(F)(F)F)c(F)c1)N1[C@H]2CC[C@H](c3cc(C(F)F)nc4ncnn34)[C@@H]1CC2 [Compound 338]
Emax [1, 4]: 70% | IC50 [1, 5]: 3.09 µM | IC50 ([2]; read-out: pIC50 (converted)): 5.5 µM | Emax [2]: 62% | Emax [3]: 99% | IC50 [3, 6]: 0.0912 µM

O=C(c1ccc(C(F)(F)F)cc1)N1[C@H]2CC[C@H](c3cc(C(F)F)nc4ncnn34)[C@@H]1CC2 [Compound 340]
Emax [1, 4]: 72% | IC50 [1, 5]: 3.31 µM | IC50 ([2]; read-out: pIC50 (converted)): 4.27 µM | Emax [2]: 69% | Emax [3]: 100% | IC50 [3, 6]: 0.0708 µM

O=C(c1cc(F)cc(F)c1)N1[C@H]2CC[C@H](c3cc(C(F)F)nc4ncnn34)[C@@H]1CC2 [Compound 341]
Emax [1, 4]: 63% | IC50 [1, 5]: 5.01 µM | IC50 ([2]; read-out: pIC50 (converted)): > 10 µM | Emax [2]: 33% | Emax [3]: 97% | IC50 [3, 6]: 0.141 µM

O=C(c1ccc(OC(F)(F)F)c(F)c1)N1[C@H]2CC[C@H](c3cc(C(F)F)nc4ncnn34)[C@@H]1CC2 [Compound 342]
Emax [1, 4]: 77% | IC50 [1, 5]: 2.69 µM | IC50 ([2]; read-out: pIC50 (converted)): 4.47 µM | Emax [2]: 69% | Emax [3]: 100% | IC50 [3, 6]: 0.0324 µM

COc1cc(C(=O)N2[C@H]3CC[C@H](c4cc(C(F)F)nc5ncnn45)[C@@H]2CC3)ccc1F [Compound 343]
Emax [1, 4]: 68% | IC50 [1, 5]: 4.57 µM | IC50 ([2]; read-out: pIC50 (converted)): > 10 µM | Emax [2]: 44% | Emax [3]: 102% | IC50 [3, 6]: 0.0676 µM

Cc1cc(C(=O)N2[C@H]3CC[C@H](c4cc(C(F)F)nc5ncnn45)[C@@H]2CC3)cc(F)c1F [Compound 344]
Emax [1, 4]: 80% | IC50 [1, 5]: 2.57 µM | IC50 ([2]; read-out: pIC50 (converted)): 7.24 µM | Emax [2]: 61% | Emax [3]: 99% | IC50 [3, 6]: 0.0295 µM

O=C(c1ccc(F)c(OC(F)F)c1)N1[C@H]2CC[C@H](c3cc(C(F)F)nc4ncnn34)[C@@H]1CC2 [Compound 345]
Emax [1, 4]: 72% | IC50 [1, 5]: 3.72 µM | IC50 ([2]; read-out: pIC50 (converted)): 8.32 µM | Emax [2]: 48% | Emax [3]: 99% | IC50 [3, 6]: 0.0759 µM

CC(C)(C)c1ccc(C(=O)N2[C@H]3CC[C@H](c4cc(C(F)F)nc5ncnn45)[C@@H]2CC3)o1 [Compound 348]
Emax [1, 4]: 92% | IC50 [1, 5]: 1.29 µM | IC50 ([2]; read-out: pIC50 (converted)): 4.47 µM | Emax [2]: 70% | Emax [3]: 99% | IC50 [3, 6]: 0.0339 µM

Cc1ccc(C(=O)N2[C@H]3CC[C@H](c4cc(C(F)F)nc5ncnn45)[C@@H]2CC3)s1 [Compound 349]
Emax [1, 4]: 86% | IC50 [1, 5]: 1.78 µM | IC50 ([2]; read-out: pIC50 (converted)): 4.79 µM | Emax [2]: 64% | Emax [3]: 102% | IC50 [3, 6]: 0.0224 µM

O=C(c1ccc2c(c1)OC(F)(F)O2)N1[C@H]2CC[C@H](c3cc(C(F)F)nc4ncnn34)[C@@H]1CC2 [Compound 350]
Emax [1, 4]: 85% | IC50 [1, 5]: 2.09 µM | IC50 ([2]; read-out: pIC50 (converted)): 4.9 µM | Emax [2]: 74% | Emax [3]: 100% | IC50 [3, 6]: 0.0251 µM

O=C(c1ccc(Cl)s1)N1[C@H]2CC[C@H](c3cc(C(F)F)nc4ncnn34)[C@@H]1CC2 [Compound 351]
Emax [1, 4]: 83% | IC50 [1, 5]: 2.14 µM | IC50 ([2]; read-out: pIC50 (converted)): 6.31 µM | Emax [2]: 69% | Emax [3]: 99% | IC50 [3, 6]: 0.0513 µM

Cc1ccc(C(=O)N2[C@H]3CC[C@H](c4cc(C(F)F)nc5ncnn45)[C@@H]2CC3)o1 [Compound 354]
Emax [1, 4]: 70% | IC50 [1, 5]: 4.47 µM | IC50 ([2]; read-out: pIC50 (converted)): 9.77 µM | Emax [2]: 45% | Emax [3]: 100% | IC50 [3, 6]: 0.0891 µM
